From publication PMC9476787 (Chinese Herbal Medicines, 2020)

Key:
[1] = target: yeast α-glucosidase; assay: α-glucosidase inhibition assay; assay type: biochemical; details: read-out: IC50 α-Glucosidase; Table 2; mean ± SD, n = 3
[2] = target: T1, PTP1B (human, recombinant) (Homo sapiens, UniProt P18031); assay: PTP1B inhibition assay; assay type: biochemical
T1 sequence (P18031 1-435): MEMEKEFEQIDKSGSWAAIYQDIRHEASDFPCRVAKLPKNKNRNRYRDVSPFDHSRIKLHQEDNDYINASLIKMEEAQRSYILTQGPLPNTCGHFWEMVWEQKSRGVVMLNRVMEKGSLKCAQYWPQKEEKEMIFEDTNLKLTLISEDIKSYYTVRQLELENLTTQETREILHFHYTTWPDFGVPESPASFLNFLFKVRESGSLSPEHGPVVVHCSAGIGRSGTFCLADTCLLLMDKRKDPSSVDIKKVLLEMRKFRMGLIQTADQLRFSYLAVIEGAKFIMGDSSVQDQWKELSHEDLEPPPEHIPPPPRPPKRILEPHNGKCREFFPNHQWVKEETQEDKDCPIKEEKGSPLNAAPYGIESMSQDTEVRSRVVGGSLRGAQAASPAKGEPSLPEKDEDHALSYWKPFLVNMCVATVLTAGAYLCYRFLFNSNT

Q: How did the IC50 [1] turn out when CC[C@H](CC[C@@H](C)[C@H]1CC[C@H]2[C@@H]3CC=C4C[C@@H](O)CC[C@]4(C)[C@H]3CC[C@]12C)C(C)C [Compound 6, β-Sitosterol] was run?
A: The IC50 was 69.41 ± 0.03 µM.

Q: And the IC50 [2]?
A: The IC50 was greater than 100 µM.

Q: How did the IC50 [1] turn out when CC1(C)CC[C@]2(C(=O)O)CC[C@]3(C)C(=CC[C@@H]4[C@@]5(C)CC[C@H](O)C(C)(C)[C@@H]5CC[C@]43C)[C@@H]2C1 [Compound 7, Oleanolic acid] was run?
A: The IC50 was 41.04 ± 0.34 µM.
